Key:
[1] = biological target: Sodium-dependent serotonin transporter (Homo sapiens, UniProt P31645); assay: Ability to inhibit [3H]citalopram binding to serotonin transporter in cynomolgus monkey striatum; type: tissue-based, Cercopithecidae; details: target entry is the homologue from another species
[2] = Selectivity ratio is IC 50 value of dopamine receptor to that of serotonin 5-HT

Chain of Sodium-dependent serotonin transporter (P31645 whole entry): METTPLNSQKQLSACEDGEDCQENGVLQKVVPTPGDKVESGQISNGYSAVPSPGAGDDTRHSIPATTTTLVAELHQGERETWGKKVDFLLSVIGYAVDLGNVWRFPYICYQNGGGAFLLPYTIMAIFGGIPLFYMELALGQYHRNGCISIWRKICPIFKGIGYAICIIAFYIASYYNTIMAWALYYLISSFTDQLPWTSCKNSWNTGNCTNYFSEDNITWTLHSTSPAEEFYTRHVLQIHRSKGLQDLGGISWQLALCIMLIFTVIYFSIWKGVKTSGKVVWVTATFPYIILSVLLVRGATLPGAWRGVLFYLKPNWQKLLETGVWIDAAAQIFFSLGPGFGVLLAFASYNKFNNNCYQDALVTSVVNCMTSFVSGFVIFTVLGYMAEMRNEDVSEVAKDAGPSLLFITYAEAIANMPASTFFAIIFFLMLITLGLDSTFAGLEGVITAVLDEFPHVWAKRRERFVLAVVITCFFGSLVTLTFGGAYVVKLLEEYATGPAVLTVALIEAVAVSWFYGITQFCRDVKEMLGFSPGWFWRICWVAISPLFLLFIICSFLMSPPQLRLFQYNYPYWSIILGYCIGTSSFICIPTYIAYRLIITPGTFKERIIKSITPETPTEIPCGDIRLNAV

For `COC(=O)C1C(c2cccc(Br)c2)CC2CCC1N2C` (configuration not stated), the IC50 [1] was 20.4 nM and the Selectivity ratio [2] was 3.

Work on `COC(=O)C1C2CCC(CC1c1ccc(Cl)c(Cl)c1)N2` (configuration not stated) yielded an IC50 [1] of 1.4 nM.

For `COC(=O)C1C2CCC(CC1c1ccc(Cl)cc1)N2` (configuration not stated), the IC50 [1] was 1.63 nM and the Selectivity ratio [2] was 1.

For `COC(=O)C1C(c2cccc(I)c2)CC2CCC1N2C` (configuration not stated), the IC50 [1] was 9.88 nM and the Selectivity ratio [2] was 0.4.

Work on `COC(=O)C1C(c2ccc(I)cc2)CC2CCC1N2C` (configuration not stated) yielded an IC50 [1] of 2.53 nM and a Selectivity ratio [2] of 2.

Molecule `COC(=O)[C@H]1[C@@H](c2ccc(F)cc2)C[C@H]2CC[C@H]1N2C` has an IC50 [1] of 160 nM.

`COC(=O)C1C(c2ccc(Cl)c(Cl)c2)CC2CCC1N2C` (configuration not stated) gave an IC50 [1] of 2.47 nM and a Selectivity ratio [2] of 2.

Source: ChEMBL document CHEMBL1126629 (J Med Chem, 1993)
